From patent publication US5241065A, “2,3,4,5-tetrahydro-1H-3-benzazepines having anti-psychotic activity” (Schering Corporation, priority 1992, dated 1993)
Like-named read-outs stand apart in the source and are kept apart here.

Legend:
D-2 receptor = biological target: T1, D-2 receptor (Rattus norvegicus, UniProt P61169); experiment: Competitive inhibition assay, 3H-spiperone binding to rat striatal tissue (D-2); parameters: species or system Male Sprague-Dawley rats; conditions: rat striatal homogenate, 0.2 nM 3H-spiperone, pH 7.4, 37° C., 15 minutes, read-out: Ki against 3H-spiperone
T1 construct: Striatal tissue was excised, pooled, and homogenized; from tissue; host or cells: rat striatum (Sprague-Dawley), washed membrane homogenate
Description: (§1) Many compounds capable of effecting reproducible physiological changes in neural tissues are believed to operate by binding at one or more receptor sites.
(§2) A methodology for characterization of binding and an interpretation of the data are described by Billard et al., Life Sciences 35, 1885 (1984) in which the binding of (R)-(+)-7-chloro-8-hydroxy-3-methyl-1-phenyl-2,3,4,5-tetrahydro-1H-3-benzazepine (SCH 23390) (as its hemi-maleate) to the dopamine D-1 receptor is characterized.
(§3) Tritiated SCH 23390 and tritiated spiperone (a potent D-2 ligand) were obtained as described in the Billard et al. reference supra and serially diluted in 0.05 M Tris buffer, pH 7.4, as required. A compound of the invention was diluted in 0.05 M Tris buffer, pH 7.4, as required.
(§4) Male Sprague-Dawley rats (200 to 250 g) from Charles River Breeding Laboratories, Mass., were used to obtain brain tissue. The rats were humanely sacrificed and their brains removed and placed on ice. Striatal tissue was excised, pooled, and homogenized (Brinkman Polytron, 10 sec) in 100 volumes (w/v) of ice cold 50 mM Tris buffer, pH 7.4 (at 25° C.). The homogenate was centrifuged at 20,000 x g for 10 min. The resulting pellet was re-homogenized in Tris buffer and centrifuged again. The final pellet was resuspended in 50 mM Tris buffer, pH 7.4 containing 120 mM NaCl, 5 mM KCl, 2 mM CaCl2, and 1 mM MgCl2.
(§5) Polypropylene incubation tubes received 100 μl of the individual test compounds at various concentrations dissolved or suspended in 0.05 M Tris buffer, pH 7.4 containing 4 mg/ml methylcellulose, 100 μl of a solution of ^3 H-SCH 23390 in Tris buffer (final reaction mixture concentration=0.3nM) or 100 μl of a solution of ^3 H-spiperone in Tris buffer (final concentration=0.2 nM) and 800 μl of tissue suspension (ca. 3 mg/assay). Tubes were incubated at 37° C. for 15 minutes and rapidly vacuum filtered through Whatman GF/B filters and rinsed 4 times with 4 ml of ice cold 50 mM Tris buffer, pH 7.4. The filters were transferred to scintillation vials, equilibrated with 10 ml of scintillant (Scintosol, Isolab, Inc.) for 16 hours at 25° C., and the radioactivity was determined in a liquid scintillation counter. Ki values were determined as described by Billard et al. using the relationship: K i =IC50 /(1+([…])) wherein IC50 =concentration of test drug necessary to displace 50% of specifically bound ^3 H-SCH 23390, [L]=concentration of radioligand used in the assay, and KD =dissociation constant.

dopamine D-1 receptor = biological target: T2, dopamine D-1 receptor (Rattus norvegicus, UniProt P18901); experiment: Competitive inhibition assay, 3H-SCH 23390 binding to rat striatal tissue (dopamine D-1); parameters: species or system Male Sprague-Dawley rats; conditions: rat striatal homogenate, 0.3 nM 3H-SCH 23390, pH 7.4, 37° C., 15 minutes, read-out: Ki against 3H-SCH 23390
T2 construct: Striatal tissue was excised, pooled, and homogenized; from tissue; host or cells: rat striatum (Sprague-Dawley), washed membrane homogenate
Description: as §1, §2, §3, §4, §5

rat = experiment: Toxicity, rat; format: in vivo; conditions: for Toxicity, rat: result in words, dose in mpk within the value
Description: The compounds of this invention are substantially non-toxic at the therapeutic close, as is shown in the following Table 4, which compares them with related reference compounds: […]

squirrel monkeys = experiment: Suppression of conditioned avoidance response (CAR) in squirrel monkeys; format: in vivo; conditions: Saimiri, in Primates, po, read-out: Monkey CAR, minimal effective dose (MED)
Description: This test is designed to measure the effective duration of candidate compounds.
Male or female squirrel monkeys weighing 800-1200 g housed one per cage are utilized. Initially each monkey is taught to terminate both a 3mA electric shock delivered through the grid floor of the test cage and an overlapping tone by depressing a lever in the cage.
In the second phase of the testing, a ten second tone is turned on prior to the shock component. A lever pass during the sounding of the tone terminates the tone and prevents the occurrence of the shock component and is denoted as an "avoidance".
The compound testing is commenced after three consecutive days of re-testing. […] The monkey must achieve at lest an 85% correct avoidance before drug testing commences. If this minimal avoidance level is achieved, the next day the monkey is orally dosed or injected with the subject compounds in the appropriate vehicle, and the number of avoidances are recorded. An animal is defined as having been "affected" by any drug treatment if there is a 50% loss of avoidance behavior relative to the performance of the animal when only the vehicle is injected. The minimal effective dose (MED) is defined as that dose producing an effect in at least 50% of the animals.
A test may be conducted to determine the effective duration of a compound in accordance with the present invention by comparing a compound of the invention to the known compound SCH 23390. A compound of the invention administered 60 minutes prior to the test is compared to SCH 23390 administered 30 minutes prior to test. The duration of each compound is determined by administering a 12.0 mg/kg p.o. dose six hours prior to testing.

rats = experiment: Conditioned avoidance response (CAR) suppression in rats; format: in vivo; conditions: Rattus norvegicus, read-out: Rat CAR, minimal effective dose (MED)
Protocol: N.Y. Acad. Sci. 66, 740 (1957)]. A series of experiments was carried out to assess the ability of the compounds of this invention to suppress the conditioned avoidance response (CAR) in rats.
Rats were required to jump onto a platform located 6.75 inches (17.15 cm) above the grid floor of an experimental chamber in response to a 5-second tone to avoid a 10-second foot shock (0.6 ma). Each experimental session consisted of 20 such trials presented at 30-second intervals. A correct CAR is scored whenever the rat jumps onto the platform during the tone (prior to foot shock). An escape response is scored when the rat jumps onto the platform during a shock. A response failure is defined as the lack of an escape response during the 10-second shock period.
Groups of 6-8 rats were trained in two consecutive days (total of 40 trials). Rats that reached criterion on day 2 (correct CARs in 16 or more of the 20 trials) were treated with either a test drug or a vehicle on day 3. Suppression of CAR was analyzed statistically using Student's t-test comparing the performances of drug-treated to vehicle-treated rats.

T2 sequence (P18901 whole entry): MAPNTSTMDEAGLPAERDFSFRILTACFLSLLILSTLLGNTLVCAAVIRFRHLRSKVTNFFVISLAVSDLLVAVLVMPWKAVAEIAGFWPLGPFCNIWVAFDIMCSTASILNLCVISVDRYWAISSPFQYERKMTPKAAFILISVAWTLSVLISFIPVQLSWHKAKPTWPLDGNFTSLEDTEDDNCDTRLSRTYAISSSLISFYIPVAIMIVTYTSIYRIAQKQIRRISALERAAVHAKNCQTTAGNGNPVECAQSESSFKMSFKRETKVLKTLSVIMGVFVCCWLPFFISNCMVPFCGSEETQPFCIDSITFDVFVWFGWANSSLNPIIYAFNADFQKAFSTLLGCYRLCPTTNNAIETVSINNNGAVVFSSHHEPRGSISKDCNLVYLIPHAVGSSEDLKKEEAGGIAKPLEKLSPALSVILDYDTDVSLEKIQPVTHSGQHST
T1 sequence (P61169 whole entry): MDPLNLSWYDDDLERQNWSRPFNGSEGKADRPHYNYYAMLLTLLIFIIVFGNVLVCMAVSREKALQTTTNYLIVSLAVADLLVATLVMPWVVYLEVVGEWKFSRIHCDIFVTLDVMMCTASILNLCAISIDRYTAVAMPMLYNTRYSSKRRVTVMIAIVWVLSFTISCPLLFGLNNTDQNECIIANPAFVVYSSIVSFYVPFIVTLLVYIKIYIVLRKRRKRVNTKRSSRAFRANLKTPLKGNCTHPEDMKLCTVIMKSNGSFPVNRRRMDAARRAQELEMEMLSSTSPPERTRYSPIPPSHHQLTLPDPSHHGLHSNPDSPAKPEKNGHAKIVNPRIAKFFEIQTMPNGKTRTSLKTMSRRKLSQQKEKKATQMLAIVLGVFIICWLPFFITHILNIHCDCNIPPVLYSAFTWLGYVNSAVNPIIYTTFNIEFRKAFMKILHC

Compound	Ki (D-2 receptor) [nM]	Ki (dopamine D-1 receptor) [nM]	Toxicity, rat (rat)	minimal effective dose (rats; po (per oral)) [mg/kg]	further results
CN1CCc2cc(Cl)c(O)cc2C(C2=CCCCC2)C1 (racemic) [K, (R,S)-7-chloro-1-(1-cyclohexenyl)-8-hydroxy-3-methyl-2,3,4,5-tetrahydro-1H-3-benzazepine]	1440	2.2	–	–	–
CC1=C(C2CN(C)CCc3cc(Cl)c(O)cc32)CCC1 (racemic) [G, (R,S)-7-chloro-8-hydroxy-3-methyl-(2-methyl-1-cyclopentenyl)-2,3,4,5-tetrahydro-1H-3-benzazepine]	656	0.27	Non-toxic at 300 mpk	10	minimal effective dose (squirrel monkeys): 5 mg/kg; minimal effective dose (squirrel monkeys; at 6 hours): 20 mg/kg; minimal effective dose (rats; po, at 6 hours): 50 mg/kg; minimal effective dose (rats; sc (subcutaneous)): 0.01 mg/kg
CC1=C([C@H]2CN(C)CCc3cc(Cl)c(O)cc32)CCC1 [H, (R)-7-chloro-8-hydroxy-3-methyl-1-(2-methyl-1-cyclopentenyl)-2,3,4,5-tetrahydro-1H-3-benzazepine]	358	0.43	Non-toxic at 150 mpk	5	minimal effective dose (squirrel monkeys): 2 mg/kg; minimal effective dose (squirrel monkeys; at 4 hours): 10 mg/kg; minimal effective dose (rats; po, at 6 hours): 25 mg/kg
CC1=C([C@@H]2CN(C)CCc3cc(Cl)c(O)cc32)CCC1 [J, (S)-7-chloro-8-hydroxy-3-methyl-1-(2-methyl-1-cyclopentenyl)-2,3,4,5-tetrahydro-1H-3-benzazepine]	3690	15	–	> 30	–
Cc1cc2c(cc1O)[C@H](C1=CCCCC1)CN(C)CC2 [B, (S)-1-(1-cyclohexenyl)-8-hydroxy-3,7-dimethyl-2,3,4,5-tetrahydro-1H-3-benzazepine, reference compound]	4370	101	–	> 30	–
Cc1cc2c(cc1O)C(C1CCCCC1)CN(C)CC2 (stereo not drawn) [E, reference compound]	3610	48	Lethal at 300 mpk	10	minimal effective dose (rats; sc (subcutaneous)): 3 mg/kg
Cc1cc2c(cc1O)C(C1=CCCCC1)CN(C)CC2 (racemic) [A, (R,S)-1-(1-cyclohexenyl)-8-hydroxy-3,7-dimethyl-2,3,4,5-tetrahydro-1H-3-benzazepine, reference compound]	1880	8.7	–	> 30	Toxicity, rat: salivation (rat; 10 mpk po, after 1 hour): salivation in 1 of 3 rats; minimal effective dose (squirrel monkeys): 3 mg/kg; minimal effective dose (squirrel monkeys; at 1 hour): 10 mg/kg
CN1CCc2cc(Cl)c(O)cc2[C@@H](C2=CCCCC2)C1 [M, (R)-7-chloro-1-(1-cyclohexenyl)-8-hydroxy-3-methyl-2,3,4,5-tetrahydro-1H-3-benzazepine]	1090	0.87	Secretions at 300 mpk	10	–
CN1CCc2cc(Cl)c(O)cc2C(C2CCCC2)C1 (stereo not drawn) [D, reference compound]	–	–	–	> 30	minimal effective dose (rats; sc (subcutaneous)): 3 mg/kg
Cc1cc2c(cc1O)[C@@H](C1=CCCCC1)CN(C)CC2 [C, (R)-1-(1-cyclohexenyl)-8-hydroxy-3,7-dimethyl-2,3,4,5-tetrahydro-1H-3-benzazepine, reference compound]	1670	4	–	–	minimal effective dose (rats; sc (subcutaneous)): 0.1 mg/kg
CN1CCc2cc(Cl)c(O)cc2[C@H](C2=CCCCC2)C1 [L, (S)-7-chloro-1-(1-cyclohexenyl)-8-hydroxy-3-methyl-2,3,4,5-tetrahydro-1H-3-benzazepine]	2080	23	–	> 30	–
CC(C)=C(C)C1CN(C)CCc2cc(Cl)c(O)cc21 (stereo not drawn) [P]	554	2.8	–	10	–
CC1=C(C2CN(C)CCc3cc(Cl)c(O)cc32)CCCC1 (racemic) [N, (R,S)-7-chloro-8-hydroxy-3-methyl-1-(2-methyl-1-cyclohexenyl)-2,3,4,5-tetrahydro-1H-3-benzazepine]	420	0.83	–	30	–
Cc1cc2c(cc1O)C(C1CCCC1)CN(C)CC2 (stereo not drawn) [F, reference compound]	1050	44	Lethal at 300 mpk	–	–
CN1CCc2cc(Cl)c(O)cc2C(C2=CCCC2)C1 (racemic) [Q, (R,S)-7-chloro-1-(1-cyclopentenyl)-8-hydroxy-3-methyl-2,3,4,5-tetrahydro-1H-3-benzazepine]	595	2.3	–	–	–
